The source of these data is US20250320184A1 (SIRONAX LTD., priority 2022, published 2025).

This assay addresses T1, SARM1 (50-724) (Homo sapiens, UniProt Q6SZW1).
T1 sequence (Q6SZW1 50-724): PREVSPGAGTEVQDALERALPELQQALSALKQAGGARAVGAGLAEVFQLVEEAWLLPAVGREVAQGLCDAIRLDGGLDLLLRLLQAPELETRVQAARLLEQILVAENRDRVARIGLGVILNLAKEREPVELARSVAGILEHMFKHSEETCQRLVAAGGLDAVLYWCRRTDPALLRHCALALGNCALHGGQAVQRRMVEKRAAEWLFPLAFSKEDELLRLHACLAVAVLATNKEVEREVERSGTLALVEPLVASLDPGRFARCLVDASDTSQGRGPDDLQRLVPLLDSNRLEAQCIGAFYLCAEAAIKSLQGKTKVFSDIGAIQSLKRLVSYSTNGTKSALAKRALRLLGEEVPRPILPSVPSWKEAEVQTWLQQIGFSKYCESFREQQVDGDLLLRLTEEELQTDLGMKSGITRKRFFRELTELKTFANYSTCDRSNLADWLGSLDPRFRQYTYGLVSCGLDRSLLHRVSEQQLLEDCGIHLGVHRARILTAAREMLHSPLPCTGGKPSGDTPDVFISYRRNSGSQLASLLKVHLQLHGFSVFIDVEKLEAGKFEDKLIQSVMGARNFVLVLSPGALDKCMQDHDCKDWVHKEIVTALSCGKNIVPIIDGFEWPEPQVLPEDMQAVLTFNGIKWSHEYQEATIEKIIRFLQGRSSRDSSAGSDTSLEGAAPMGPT
In words: biochemical.
Protocol: An enzymatic assay was performed in a 384-well plate using Dulbecco's phosphate-buffered saline (PBS) as the reaction buffer. […] The reaction was initiated by adding a mixture of 200 μM nicotinamide mononucleotide (NMN) as activator and 100 μM NAD^+ as substrate. After 1 h of incubation at room temperature, the reaction was terminated with 10 times volume of 70% acetonitrile, then centrifuged at 3800 rpm for 10 min.
Usually IC50 stands for the concentration that gives 50% inhibition. The low end stands for inhibition by little substance, the high end for a need for much substance. The compound `O=S(=O)(Nc1cccc(-c2cnccn2)c1)c1cccc(Cl)c1Cl` [Compound 83, 2,3-dichloro-N-(3-pyrazin-2-ylphenyl)benzenesulfonamide] had an IC50 of 100 to 500 nM.
`O=C1CCCc2ccc(NS(=O)(=O)c3cccc(Cl)c3Cl)cc2N1` [Compound 84, 2,3-dichloro-N-(2-oxo-2,3,4,5-tetrahydro-1H-benzo[b]azepin-8-yl)benzenesulfonamide] yielded an IC50 of less than 100 nM.
Compound `N#Cc1cccc2ccc(NS(=O)(=O)c3cccc(Cl)c3Cl)cc12` [Compound 85, 2,3-dichloro-N-(8-cyanonaphthalen-2-yl)benzenesulfonamide] came in with a half-maximal inhibitory concentration (IC50) of 100 to 500 nM.
Consider `COc1ccc(NS(=O)(=O)c2cccc(Cl)c2Cl)cc1C(N)=O` [Compound 86, 5-((2,3-dichlorophenyl)sulfonamido)-2-methoxybenzamide], for which the IC50 fell in the range of 100 to 500 nM.
With `NC(=O)c1cccc2ccc(NS(=O)(=O)c3cccc(Cl)c3Cl)cc12` [Compound 87, 7-((2,3-dichlorophenyl)sulfonamido)-1-naphthamide], the IC50 fell in the range of 100 to 500 nM.
For the compound `O=S(=O)(Nc1ccc2c(C3CC3)n[nH]c2c1)c1cccc(Cl)c1Cl` [Compound 88, 2,3-dichloro-N-(3-cyclopropyl-1H-indazol-6-yl)benzenesulfonamide], the IC50 is less than 100 nM.
With `COc1cc2cc(NS(=O)(=O)c3cccc(Cl)c3Cl)ccc2cn1` [Compound 89, 2,3-dichloro-N-(3-methoxyisoquinolin-6-yl)benzenesulfonamide], the IC50 is 100 to 500 nM.
In the case of `O=c1[nH]cc(Cl)c2ccc(NS(=O)(=O)c3cccc(Cl)c3Cl)cc12` [Compound 91, 2,3-dichloro-N-(4-chloro-1-oxo-1,2-dihydroisoquinolin-7-yl)benzenesulfonamide], the IC50 was less than 100 nM.
Consider `C[C@H](Nc1ccc2ccnc(O)c2c1)c1cccc(Cl)c1` [Compound 92, (S)-7-((1-(3-chlorophenyl)ethyl)amino)isoquinolin-1-ol], for which the IC50 fell in the range of 100 to 500 nM.
Turning to `Cc1cc(F)cc(C(Nc2ccc3c(c2)C(=O)NCC3)c2cccnc2)c1` (stereo not shown) [Compound 178], the IC50 is greater than 1000 nM.
Compound `Cc1c[nH]c(=O)c2cc(NS(=O)(=O)c3cccc(Cl)c3Cl)ccc12` [Compound 188, 2,3-dichloro-N-(4-methyl-1-oxo-1,2-dihydroisoquinolin-7-yl)benzenesulfonamide] displayed an IC50 of less than 100 nM.
`CC1CNC(=O)c2cc(NS(=O)(=O)c3cccc(Cl)c3Cl)ccc21` (stereo not shown) [Compound 189] displayed an IC50 of less than 100 nM.
Take `Cc1c(Br)cccc1S(=O)(=O)Nc1ccc2cc[nH]c(=O)c2c1` [Compound 191, 3-bromo-2-methyl-N-(1-oxo-1,2-dihydroisoquinolin-7-yl)benzenesulfonamide]: the IC50 was less than 100 nM.
Next, `O=c1[nH]cc(Cl)c2ccc(NS(=O)(=O)c3c(Cl)ccc(Cl)c3Cl)cc12` [Compound 197, 2,3,6-trichloro-N-(4-chloro-1-oxo-1,2-dihydroisoquinolin-7-yl)benzenesulfonamide]: less than 100 nM.
Next, `CC(Nc1ccc2nc[nH]c(=O)c2c1)c1nc(Cl)c(Cl)s1` (stereo not shown) [Compound 202, 6-((1-(4,5-dichlorothiazol-2-yl)ethyl)amino)quinazolin-4(3H)-one]: less than 100 nM; `CC1(C)C(=O)Nc2cc(NS(=O)(=O)c3cccc(Cl)c3Cl)ccc21` [Compound 204, 2,3-dichloro-N-(3,3-dimethyl-2-oxo-indolin-6-yl)benzenesulfonamide]: less than 100 nM.
Regarding `O=C1NCCOc2ccc(NS(=O)(=O)c3cccc(Cl)c3Cl)cc21` [Compound 206, 2,3-dichloro-N-(5-oxo-3,4-dihydro-2H-1,4-benzoxazepin-7-yl)benzenesulfonamide], the IC50 lay in the range of 100 to 500 nM.
`O=C1Nc2cc(NS(=O)(=O)c3cccc(Cl)c3Cl)ccc2C12CC2` [Compound 208, 2,3-dichloro-N-(2′-oxospiro[cyclopropane-1,3′-indolin]-6′-yl)benzenesulfonamide] came in with a concentration for half-maximal inhibition (IC50) of less than 100 nM.
Consider `CC1(C)C(=O)Nc2cc(NS(=O)(=O)c3c(Cl)ccc(Cl)c3Cl)ccc21` [Compound 209, 2,3,6-trichloro-N-(3,3-dimethyl-2-oxoindolin-6-yl)benzenesulfonamide], for which the concentration for half-maximal inhibition (IC50) was less than 100 nM.
As to `CN1C(=O)C(C)(C)c2ccc(NS(=O)(=O)c3cccc(Cl)c3Cl)cc21` [Compound 211, 2,3-dichloro-N-(1,3,3-trimethyl-2-oxoindolin-6-yl)benzenesulfonamide], the concentration for half-maximal inhibition (IC50) was less than 100 nM.
The result for `O=C1Nc2cc(NS(=O)(=O)c3cccc(Cl)c3Cl)ccc2C12CCCC2` [Compound 212, 2,3-dichloro-N-(2′-oxospiro[cyclopentane-1,3′-indolin]-6′-yl)benzenesulfonamide] reads less than 100 nM; that for `O=C1Cc2ccc(NS(=O)(=O)c3cccc(Cl)c3Cl)cc2CN1` [Compound 217, 2,3-dichloro-N-(3-oxo-1,2,3,4-tetrahydroisoquinolin-7-yl)benzenesulfonamide], 100 to 500 nM.
Next, `CC1(C)CNc2cc(NS(=O)(=O)c3cccc(Cl)c3Cl)ccc21` [Compound 219, 2,3-dichloro-N-(3,3-dimethylindolin-6-yl)benzenesulfonamide]: less than 100 nM; `CC(=O)N1CC(C)(C)c2ccc(NS(=O)(=O)c3cccc(Cl)c3Cl)cc21` [Compound 220, N-(1-acetyl-3,3-dimethyl-indolin-6-yl)-2,3-dichloro-benzenesulfonamide]: less than 100 nM; `O=C1Nc2cc(NS(=O)(=O)c3cccc(Cl)c3Cl)ccc2CO1` [Compound 224, 2,3-dichloro-N-(2-oxo-1,4-dihydro-2H-benzo[d][1,3]oxazin-7-yl)benzenesulfonamide]: less than 100 nM.
`Cn1c(C(N)=O)nc2cc(NS(=O)(=O)c3cccc(Cl)c3Cl)ccc21` [Compound 225, 5-((2,3-dichlorophenyl)sulfonamido)-1-methyl-1H-benzo[d]imidazole-2-carboxamide]: the IC50 was in the range of 100 to 500 nM.
Next, `CC1(C)NC(=O)c2cc(NS(=O)(=O)c3cccc(Cl)c3Cl)ccc21` [Compound 227, 2,3-dichloro-N-(1,1-dimethyl-3-oxoisoindolin-5-yl)benzenesulfonamide]: less than 100 nM; `CC1C(=O)Nc2cc(NS(=O)(=O)c3cccc(Cl)c3Cl)ccc21` (stereo not shown) [Compound 235]: less than 100 nM.
The compound `CC1(C)C(=O)N(CCO)c2cc(NS(=O)(=O)c3cccc(Cl)c3Cl)ccc21` [Compound 240, 2,3-dichloro-N-(1-(2-hydroxyethyl)-3,3-dimethyl-2-oxoindolin-6-yl)benzenesulfonamide] gave a concentration for half-maximal inhibition (IC50) of less than 100 nM.
Regarding `CC1(C)C(=O)N(CC(=O)O)c2cc(NS(=O)(=O)c3cccc(Cl)c3Cl)ccc21` [Compound 241, 2-[6-[(2,3-dichlorophenyl)sulfonylamino]-3,3-dimethyl-2-oxo-indolin-1-yl]acetic Acid], the IC50 is less than 100 nM.
The result for `CC1(C)CN(C(N)=O)c2cc(NS(=O)(=O)c3cccc(Cl)c3Cl)ccc21` [Compound 242, 6-((2,3-dichlorophenyl)sulfonamido)-3,3-dimethylindoline-1-carboxamide] reads less than 100 nM; that for `CC1(C)CN(C(=O)C2CC2)c2cc(NS(=O)(=O)c3cccc(Cl)c3Cl)ccc21` [Compound 243, 2,3-dichloro-N-(1-(cyclopropanecarbonyl)-3,3-dimethylindolin-6-yl)benzenesulfonamide], less than 100 nM; that for `O=S(=O)(Nc1ccc(Cc2cncs2)cc1)c1cccc(Cl)c1Cl` [Compound 251, 2,3-dichloro-N-(4-(thiazol-5-ylmethyl)phenyl)benzenesulfonamide], less than 100 nM.
For `CC1(C)C(=O)N(CC(N)=O)c2cc(NS(=O)(=O)c3cccc(Cl)c3Cl)ccc21` [Compound 255, 2-[6-[(2,3-dichlorophenyl)sulfonylamino]-3,3-dimethyl-2-oxo-indolin-1-yl]acetamide], the IC50 was less than 100 nM.
The result for `CC1(C)CC(=O)c2cc(NS(=O)(=O)c3cccc(Cl)c3Cl)ccc21` [Compound 264, 2,3-dichloro-N-(1,1-dimethyl-3-oxo-2,3-dihydro-1H-inden-5-yl)benzenesulfonamide] reads less than 100 nM.
In turn, `CC1(C)CNC(=O)c2cc(NS(=O)(=O)c3cccc(Cl)c3Cl)ccc21` [Compound 265, 2,3-dichloro-N-(4,4-dimethyl-1-oxo-1,2,3,4-tetrahydroisoquinolin-7-yl)benzenesulfonamide] gave an IC50 of less than 100 nM.
For `CC1(C)Cc2ccc(NS(=O)(=O)c3cccc(Cl)c3Cl)cc2NC1=O` [Compound 268, 2,3-dichloro-N-(3,3-dimethyl-2-oxo-1,4-dihydroquinolin-7-yl)benzenesulfonamide], the half-inhibitory concentration (IC50) was in the range of 100 to 500 nM.
Regarding `CC1(C)C(=O)N(CCCO)c2cc(NS(=O)(=O)c3cccc(Cl)c3Cl)ccc21` [Compound 273], the IC50 was less than 100 nM.
`CC1(C)C(=O)N(CCC(N)=O)c2cc(NS(=O)(=O)c3cccc(Cl)c3Cl)ccc21` [Compound 279, 3-(6-((2,3-dichlorophenyl)sulfonamido)-3,3-dimethyl-2-oxoindolin-1-yl)propanamide] yielded a half-maximal inhibitory concentration (IC50) of less than 100 nM.
Take `CC1(C)C(=O)N(CCCC(N)=O)c2cc(NS(=O)(=O)c3cccc(Cl)c3Cl)ccc21` [Compound 280, 4-(6-((2,3-dichlorophenyl)sulfonamido)-3,3-dimethyl-2-oxoindolin-1-yl)butanamide]: the IC50 was less than 100 nM.
